Consider 18 molecules from publication PMC5082338, “Different Culture Metabolites of the Red Sea Fungus Fusarium equiseti Optimize the Inhibition of Hepatitis C Virus NS3/4A Protease (HCV PR)” (Marine Drugs, 2016).

Several values for one entry are separate records, joined by “and”; a condition that tells them apart may be missing. Equal values may be shown once. Read-outs that look alike come from different tables or passages of the source. Peptide text beside a SMILES is read from it.

The target of one experiment is HCV NS3/4A protease (Hepatitis C virus genotype 1b (strain HC-J4), UniProt O92972). As to the kind of experiment: HCV protease inhibitory activity (SensoLyte 520 HCV protease assay kit, fluorimetric). It is filed as biochemical. The note with it: for Inhibition of HCV PR (in words): compared to other constituents; for IC50: recHCV PR, 37 °C, 30 min. The source says: HCV NS3 is considered as a serine protease, its active site contains serine 139 amino acid residues, which attack the substrate by forming a reversible covalent bond with its amino acid residues. To be activated, the HCV NS3 has to be coupled with an activating protein named (4A), and is therefore given the name HCV NS3/4A, which is active only in its heterodimer form. The culture extracts of the endophytic fungus F. equiseti and their isolated compounds were screened for inhibition of HCV protease using the hepatitis virus C NS3 protease inhibitor 2 as a positive control. Moreover, the selectivity of the active metabolites toward HCV NS3/4A protease (viral protease) and not human serine proteases such as trypsin and chymotrypsin has been confirmed through investigating the inhibitory activity of these extracts and/or their isolated chemical constituents on human recombinant Trypsin.
(§1) Sensolyte™ 520 HCV Protease assay kit Fluorimetric (cat#AS-71145), HCV NS3/4A protease and Sensolyte™, Green protease Assay Kit Fluorimetric (cat#AS-71124), and Hepatitis Virus C NS3 protease inhibitor 2 (cat#AS-25346) were purchased from AnaSpec Inc., San Jose, CA, USA. Chymotrypsin inhibitor (Soybean trypsin) was purchased from Sigma Aldrich Co. (St. Louis, MO, USA), and Becton Dickinson Falcon™ (Tokyo, Japan). Microtest 384-well 120 μL black assay plates, no lid, non-sterile, were purchased from Becton Dickinson Inc, Franklin Lakes, NJ, USA. Culture media: Czapek agar, bacteriological peptone, malt extract, yeast extract powder, nutrient agar and potato dextrose broth were procured from Lab M, Bury, UK; Glucose, (Acros Organics, Geel, Belgium), K2HPO4 (Laboratory Reagent, Mumbai, India), MgSO4 (Oxford Laboratory Reagent, Mumbai, India), agar (Sisco Research Laboratories Pvt. Ltd., Mumbai, India).
Samples of 2 μL of culture broth fungus extracts and isolated compounds dissolved in dimethyl sulfoxide (DMSO) were placed in each well of a 384-well microplate, then 8 μL of recHCV PR (0.5 μg/mL) were added, and the plate was briefly agitated. Finally, 10 μL of the freshly prepared substrate [Ac-Asp-Glu-Dap (QXLTM520)-Glu-Glu-Abu-COO-Ala-Ser-Cys(5-FAMsp)-NH2] were added with sequential rotational shaking. The reaction mixture was incubated at 37 °C for 30 min. The fluorimetric analyses were performed on an automated TECAN GENios plate reader (Männedorf, Switzerland) with excitation and emission wavelengths at 485 and 520 nm, respectively. Each sample was tested in triplicate. HCV PR inhibition (%) was calculated using the following equation: % Inhibition = (Fsubstrate − Ftestsample) × 100/Fsubstrate where Fsubstrate is the fluorescence of the enzyme and substrate only, and Ftestsample is the fluorescence of the assay mixture with the added sample.

The test system of the next experiment is Candida albicans. As to the kind of experiment: Antimicrobial activity, inhibition zone. The note with it: oxytetracycline control 30 μg. The experiment is classed as cell-based.
In experiment [1] the target is T1, human recombinant Trypsin (Homo sapiens, UniProt P07477).
T1 construct: purchased AnaSpec Inc., San Jose, CA, USA AS-71124 (Green protease Assay Kit; no catalogue number for trypsin itself)
Put plainly: Green protease assay (trypsin inhibitory activity). It is filed as biochemical. As to conditions: 37 °C, 30 min. The method, then: as §1, with “Chymotrypsin” for “Sensolyte™ 520 HCV Protease assay kit Fluorimetric (cat#AS-71145), HCV NS3/4A protease and Sensolyte™, Green protease Assay Kit Fluorimetric (cat#AS-71124), and Hepatitis Virus C NS3 protease inhibitor 2 (cat#AS-25346) were purchased from AnaSpec Inc., San Jose, CA, USA. Chymotrypsin”
Then 17.5 μL of assay buffer and 2.5 μL of trypsin (0.1 U/μL) were added and the plate was briefly agitated. […] The positive control was the soybean trypsin-chymotrypsin inhibitor. Inhibition was calculated as above for HCV PR assay.

Another experiment relates to Bacillus megaterium. As to the kind of experiment: Antimicrobial activity, inhibition zone. The note with it: Priestia megaterium; for zone of inhibition: read-out: Inhibition zone, Bacillus megaterium. The experiment is classed as cell-based. From the text: Table 1 Antimicrobial potential of the culture extracts and isolated compounds from F. equiseti. | column: Gram-Positive Bacteria / Bacillus megaterium

For another experiment, the system named is Bacillus subtilis. Put plainly: Antimicrobial activity, inhibition zone. The experiment is classed as cell-based.
For another experiment, the system named is Staphylococcus aureus. As to the kind of experiment: Antimicrobial activity, inhibition zone. As to conditions: for zone of inhibition: read-out: Inhibition zone, Staphylococcus aureus. The experiment is classed as cell-based. From the text: Table 1 Antimicrobial potential of the culture extracts and isolated compounds from F. equiseti. | column: Gram-Positive Bacteria / Staphylococcus aureus

Where [2] appears, read: read-out: IC50 HCV Protease Inhibitory Activity.
Setting [3] is: Bacillus subtilis, oxytetracycline control 30 μg.

Sequence of HCV NS3/4A protease (O92972 1027-1207, other chains not shown): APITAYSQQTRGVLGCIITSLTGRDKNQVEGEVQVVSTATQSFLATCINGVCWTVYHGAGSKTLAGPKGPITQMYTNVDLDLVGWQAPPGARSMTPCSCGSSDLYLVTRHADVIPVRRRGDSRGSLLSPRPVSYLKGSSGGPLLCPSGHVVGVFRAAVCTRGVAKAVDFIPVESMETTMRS

For `Cc1c[nH]c(=O)[nH]c1=O` [compound 4, thymine], the “Inhibition of HCV PR (in words)” value on HCV NS3/4A protease is “inactive”. In addition, the IC50 (usually the midpoint of a concentration-inhibition curve) on HCV NS3/4A protease (setting [2]) is 51.8 ± 2.49 µM.
As for `OCc1ccc(-c2nccc3c2[nH]c2ccccc23)o1` [compound 16, perlolyrin], the zone of inhibition in the experiment on Candida albicans was 10 mm; with Bacillus megaterium (oxytetracycline control 30 μg), 9 mm; in the experiment on Bacillus subtilis (setting [3]), 8 mm; in the experiment on Staphylococcus aureus (oxytetracycline control 30 μg), 14 mm. Moreover, the IC50 in experiment [1] is above 1000 µM; at HCV NS3/4A protease (setting [2]), 37.8 µM and 37.9 µM.
As for `CN(C)[C@@H]1C(O)=C(C(N)=O)C(=O)[C@@]2(O)C(O)=C3C(=O)c4c(O)cccc4[C@@](C)(O)[C@H]3[C@H](O)[C@@H]12` [Oxytetracycline, reference compound], the zone of inhibition came to 20 mm in the experiment with Bacillus megaterium (oxytetracycline control 30 μg), 18 mm with Bacillus subtilis (setting [3]) and 17 mm in the experiment with Staphylococcus aureus (oxytetracycline control 30 μg).
For `CC(C)CC1NC(=O)C2CCCN2C(=O)C(Cc2ccccc2)NC(=O)C2CCCN2C1=O` (stereo not drawn) [compound 5, cyclo[Phenylalanyl-Pro-Leu-Pro]] (cyclo(FPLP); configuration not given here), the figures for the zone of inhibition in the experiment on Candida albicans, with Bacillus megaterium (oxytetracycline control 30 μg) and with Staphylococcus aureus (oxytetracycline control 30 μg) were 12 mm, 10 mm and 9 mm, respectively. In addition, the IC50 in experiment [1] is 226 ± 4.26 µM; on HCV NS3/4A protease (setting [2]), 29.4 µM and 29.5 µM.
In the case of `O=C1N[C@H](Cc2ccc(O)cc2)C(=O)N2CCC[C@H]12` [compound 15, cyclo(L-Tyr-L-Pro)], the zone of inhibition at 30 µg/disc was found to be 13 mm with Candida albicans, 8 mm with Bacillus megaterium (oxytetracycline control 30 μg) and 11 mm with Staphylococcus aureus (oxytetracycline control 30 μg). The IC50 is 37.9 ± 3.8 µM in experiment [1] and 18.2 ± 1.7 µM on HCV NS3/4A protease (setting [2]).
Turning to `COc1cc(O)c2c(=O)c3c(C)cc(O)cc3oc2c1` [compound 12, griseoxanthone C], the IC50 in experiment [1] was 51.3 µM; on HCV NS3/4A protease (setting [2]), 19.8 µM and 19.9 µM. For the same molecule, the zone of inhibition at 30 µg/disc in the experiment on Bacillus megaterium (oxytetracycline control 30 μg) was found to be 10 mm; in the experiment with Bacillus subtilis (setting [3]), 13 mm.
For `CC(C=CC=C(C)C(O)C(C)C1CC(O)C(C)=CC=CC(C)C2CC(CC=CC(=O)O1)CC(=O)O2)=Cc1coc(C)n1` (stereo not shown) [compound 6, 17-demethyl-2,11-dideoxy-rhizoxin], the zone of inhibition in the experiment with Candida albicans amounted to 19 mm; in the experiment with Bacillus megaterium, 8 mm; with Staphylococcus aureus, 12 mm. Besides, the IC50 in experiment [1] was found to be 145 ± 3.66 µM; at HCV NS3/4A protease (IC50 HCV Protease Inhibitory Activity), 34.4 µM.
Take `Nc1ncnc2c1ncn2C1OC(CO)C(O)C1O` (stereo not shown) [compound 18, ara-A]: the IC50 was 138 ± 2.49 µM in experiment [1] and 24.5 µM on HCV NS3/4A protease (setting [2]). Further, the zone of inhibition is 12 mm with Bacillus megaterium (oxytetracycline control 30 μg), 12 mm in the experiment on Bacillus subtilis (setting [3]) and 10 mm in the experiment on Staphylococcus aureus (oxytetracycline control 30 μg).
`CCO[C@@H]1O[C@H](CO)[C@@H](O)[C@H](O)[C@H]1O` [compound 19, ethyl-O-β-glucoside]: the IC50 on HCV NS3/4A protease (setting [2]) was above 1000 µM.
On to `CC(C)CC1NC(=O)C(C)NC1=O` [compound 1, cyclo-L-Ala-L-Leu], for which the zone of inhibition at 30 µg/disc in the experiment with Candida albicans turned out to be 13 mm; in the experiment with Bacillus megaterium (oxytetracycline control 30 μg) it was 12 mm. Moreover, on HCV NS3/4A protease, the “Inhibition of HCV PR (in words)” value was “inactive”. For the same molecule, the IC50 on HCV NS3/4A protease (setting [2]) was 58.3 ± 3.51 µM.
`CC[C@@H](CC[C@@H](C)C1CCC2C3CC=C4C[C@@H](O[C@@H]5O[C@H](CO)[C@@H](O)[C@H](O)[C@H]5O)CC[C@]4(C)C3CC[C@@]21C)C(C)C` (stereo partly drawn) [compound 9, β-sitosterol 3-O-β-glucoside]: the zone of inhibition is 10 mm with Candida albicans, 14 mm with Bacillus megaterium (oxytetracycline control 30 μg), 11 mm in the experiment with Bacillus subtilis (setting [3]) and 9 mm with Staphylococcus aureus (oxytetracycline control 30 μg). Also, the “Inhibition of HCV PR (in words)” value at HCV NS3/4A protease was “inactive”. The IC50 on HCV NS3/4A protease (setting [2]) amounted to 76.6 ± 3.78 µM.
On to `CC(C)[C@@H]1NC(=O)[C@@H]2CCCN2C1=O` [compound 2, cyclo(L-Pro-L-Val)], for which the figures for the zone of inhibition with Candida albicans, with Bacillus megaterium (oxytetracycline control 30 μg) and in the experiment with Bacillus subtilis (setting [3]) were 9 mm, 11 mm and 18 mm, respectively. The IC50 is 54.2 ± 1.88 µM in experiment [1]; 23.2 µM and 23.3 µM on HCV NS3/4A protease (setting [2]). For the same molecule, the “Sensitivity of B. subtilis (in words)” value in the experiment with Bacillus subtilis is reported as “highly sensitive”.
As for `CC(C)[C@@H](C)CC[C@@H](C)C1CCC2C3=CC=C4C[C@@H](O)CC[C@]4(C)C3CC[C@@]21C` (stereo partly drawn) [compound 8, ergostra-5,7-dien-3β-ol], at HCV NS3/4A protease, the “Inhibition of HCV PR (in words)” value was “inactive”. In addition, the IC50 at HCV NS3/4A protease (setting [2]) amounted to 77.1 ± 4.55 µM.
Consider `Cc1cc(O)c2c(c1)C(=O)c1cccc(O)c1C2=O` [compound 13, chrysophanol], for which the zone of inhibition in the experiment on Candida albicans is 11 mm; with Bacillus megaterium (oxytetracycline control 30 μg), 10 mm; with Staphylococcus aureus (oxytetracycline control 30 μg) it was 15 mm. In addition, at HCV NS3/4A protease (setting [2]), the IC50 is above 1000 µM.
In the case of `Nc1ncnc2c1ncn2[C@@H]1O[C@H](CO)C[C@H]1O` [compound 17, cordycepin], the zone of inhibition with Candida albicans was determined as 14 mm; with Bacillus megaterium (oxytetracycline control 30 μg) it was 11 mm; in the experiment on Bacillus subtilis (setting [3]) it was 9 mm; with Staphylococcus aureus (oxytetracycline control 30 μg), 16 mm. The IC50 was above 1000 µM in experiment [1]; 22.3 µM and 22.4 µM at HCV NS3/4A protease (setting [2]).
Take `O=C1c2cc(O)cc(O)c2C(=O)c2c(O)cc(CO)cc21` [compound 14, ω-hydroxyemodin]: the zone of inhibition with Candida albicans is 18 mm; in the experiment on Bacillus megaterium (oxytetracycline control 30 μg), 17 mm; with Bacillus subtilis (setting [3]), 9 mm; in the experiment with Staphylococcus aureus (oxytetracycline control 30 μg), 12 mm. Also, the IC50 was 48.5 µM in experiment [1] and 10.7 µM at HCV NS3/4A protease (setting [2]).
For the molecule `CC1=C(O)C(=O)C(Cl)=C(O)C1=O` [compound 11, 5-Chloro-3,6-dihydroxy-2-methyl-1,4-benzoquinone], the IC50 stood at 294.8 ± 2.87 µM in experiment [1] and 35.1 µM on HCV NS3/4A protease (setting [2]).

B1: T-I: soybean trypsin-chymotrypsin inhibitor (positive control for trypsin) (protein)
chain: DDESSKPCCDQCACTKSNPPQCRCSDMRLNSCHSACKSCICALSYPAQCFCVDITDFCYEPCKPSEDDKEN
modifications: mature limits and check
B1: the half-maximal inhibitory concentration (IC50) in experiment [1] was 0.5 µM.
